# Paper PMC5352051, “Identification of a novel Polo-like kinase 1 inhibitor that specifically blocks the functions of Polo-Box domain” (Oncotarget, 2016)
# pIC50: −log10 of the molar value.
# Assays:
# [1] = test system: A549 lung-carcinoma cells; assay: A549 xenograft in nude mice, tumor volume; assay type: in vivo; details: intratumoral injection 50 and 100 mg/kg, Wednesdays and Fridays, 5 weeks, vs DMSO
# Procedure: Female athymic nude mice were injected with 2.0 × 10^7 A549 lung-carcinoma cells subcutaneously. After 14~20 days, when the tumor volumes reached 100~150 mm^3, animals were divided into treatment (T521; 50, 100 mg/kg) and control (DMSO) groups with ten mice in each group. T521 (0.2 g/mL) dissolved in DMSO was administered alone and mice were treated with T521 by intratumoral injection at the different injection points according to indicated dose on Wednesdays and Fridays for 5 weeks. Tumor volumes were determined with a caliper on Monday and Thursday during drug administration cycle. Tumor volume (mm^3) was calculated using the following equation: V=L×S^2×π/6, where L is the length and S is width of the tumor. The body weight of these mice was determined as an indicator of tolerability on the same days. Student's t-tests were performed for statistical evaluation among treatment and control groups. All mice were properly treated in accordance with the guidelines of the local animal committee.
# [2] = test system: HT29; assay: MTT assay; assay type: cell-based; details: Homo sapiens, HT-29; HT29, Colon, tumor; read-out: IC50 proliferation
# Procedure: (§1) The MTT assay was performed as described. In brief, cells were seeded at 3000~5000 cells/well into 96-well plates (200 μL/well) and incubated overnight. We replaced the growth medium with fresh medium containing T521 at several concentrations (two-fold dilutions and the initial concentration is 50 μM, 10 reactions total). After further incubation for 48 hrs in the presence of T521, the medium was removed from all wells and the cells were incubated with 200 μL of fresh medium for additional 24 hrs. We then added 22 μL of MTT solution (Amresco; 5 mg/mL in PBS) to each well and incubated the plate for 4 hrs at 37°C. After removing the medium, we dissolved the purple MTT-formazan crystals by adding 150 μL of DMSO to each well and recorded absorbance at 560 nm by Envision Multilabel Reader (PerkinElmer). The inhibition curve was plotted to determine the IC50 of various cell lines using GraphPad Prism5.0.
# [3] = test system: SaOS-2; assay: MTT assay; assay type: cell-based; details: Homo sapiens; SaOS-2, Bone, tumor; read-out: IC50 proliferation
# Procedure: as §1
# [4] = test system: Bel7402; assay: MTT assay; assay type: cell-based; details: Homo sapiens, Bel-7402; Bel7402, Liver, tumor; read-out: IC50 proliferation
# Procedure: as §1
# [5] = test system: PC3; assay: MTT assay; assay type: cell-based; details: Homo sapiens, PC-3; PC3, Prostate, tumor; read-out: IC50 proliferation
# Procedure: as §1
# [6] = test system: SH-SY5Y; assay: MTT assay; assay type: cell-based; details: Homo sapiens, Brain, tumor, read-out: IC50 proliferation
# Procedure: as §1
# [7] = test system: U-2OS; assay: MTT assay; assay type: cell-based; details: Homo sapiens, U2OS, Bone, tumor, read-out: IC50 proliferation
# Procedure: as §1
# [8] = test system: MG63; assay: MTT assay; assay type: cell-based; details: Homo sapiens, MG-63; MG63, Bone, tumor; read-out: IC50 proliferation
# Procedure: as §1
# [9] = test system: A549; assay: MTT assay; assay type: cell-based; details: Homo sapiens; A549, Lung, tumor; read-out: IC50 proliferation
# Procedure: as §1
# [10] = test system: HEK-293; assay: MTT assay; assay type: cell-based; details: Homo sapiens, HEK293; HEK-293, Kidney, normal; read-out: IC50 proliferation
# Procedure: as §1
# [11] = test system: MRC-5; assay: MTT assay; assay type: cell-based; details: Homo sapiens, MRC5; MRC-5, Lung, normal; read-out: IC50 proliferation
# Procedure: as §1
smiles,measurement,setting,value
"CCS(=O)(=O)c1oc(-c2ccc(F)cc2)nc1S(=O)(=O)c1ccccc1 [T521, 5-(ethylsulfonyl)-2-(4-fluorophenyl)-4-(phenylsulfonyl) oxazole]",tumor volume,[1],obvious reduction of tumor volume
same,pIC50,[2],5.41
same,pIC50,[3],5.81
same,pIC50,[4],5.29
same,pIC50,[5],5.96
same,pIC50,[6],5.86
same,pIC50,[7],5.97
same,pIC50,[8],5.20
same,pIC50,[9],5.45
same,pIC50,[10],5.06
same,pIC50,[11],5.58
